The values that follow come from ChEMBL document CHEMBL1132404, “2,4,6-triarylchalcogenopyrylium dyes related in structure to the antitumor agent AA1 as in vitro sensitizers for the photodynamic therapy of cancer” (J Med Chem, 1999).

The nature of data set [1]: Partition coefficient (logP). As to conditions: octanol/water. In kind it is physicochemical.
Data set [2] in a line: (§1) The rate of hydrolysis as a function of time. In kind it is functional.
The subject of data set [3] is R3230AC. The data set is described as follows: Cell viability was measured against R3230AC rat mammary adenocarcinoma cells at 10 uM concentration. It is filed as functional.
Data set [4] can be described thus: Inhibition of mitochondrial Cytochrome c Oxidase. As to conditions: concentration not given here.
The nature of data set [5]: as §1. It is filed as ADME.

In data set [1], `CN(C)c1ccc(-c2cc(-c3ccc(N(C)C)cc3)[te+]c(-c3ccc(N(C)C)cc3)c2)cc1.[Cl-]` came in with a logP of 2.3. In data set [2], this molecule yielded a k1 of 0.00024 s⁻¹ and a k2 of 1.1e-05 s⁻¹. The same molecule came in with a Cell viability in data set [3] of about 75%. In data set [4], this molecule registered an inhibition of 0.38%.

Take `CN(C)c1ccc(-c2cc(-c3ccc(N(C)C)cc3)[se+]c(-c3ccc(N(C)C)cc3)c2)cc1`: in data set [1], the logP was 1.7. In data set [2], this molecule showed a k1 of 0.00024 s⁻¹ and a k2 of 1.7e-05 s⁻¹. Moreover, the inhibition in data set [4] worked out at 0.78%.

`CN(C)c1ccc(-c2cc(-c3ccc(N(C)C)cc3)[s+]c(-c3ccc(N(C)C)cc3)c2)cc1.[Cl-]` displayed a lipophilicity (logP) in data set [1] of 2.2. In addition, in data set [5], the k1 came out at 0.0001 s⁻¹ and the k2 came out at 0.000022 s⁻¹. For the same molecule, the inhibition in data set [4] came to 0.82%.
